This passage reports IC50 results from patent US6967254B2, “Substituted heterocyclic compounds and methods of use” (Amgen Inc., priority 2002, dated 2005).

Each structure is given as a SMILES string.

What is called IC50 is the concentration at which inhibition is half-maximal. High values mean lower potency, low ones higher potency.

This test deals with LPS induced TNF release, THP1 cells. The test is described as follows: Lipopolysaccharide-Activated THP1 Cell TNF Production Assay (LPS induced TNF release). In kind it is cell-based. To be noted: Homo sapiens, THP-1, bacterial LPS, 3 h at 37° C., secreted TNF-α read by ECL. Here is the method: Lipopolysaccharide-Activated THP1 Cell TNF Production Assay
THP1 cells are resuspended in fresh THP1 media (RPMI 1640, 10% heat-inactivated FBS, 1×PGS, 1×NEAA, plus 30 μM βME) at a concentration of 1E6/mL. One hundred microliters of cells per well are plated in a polystyrene 96-well tissue culture. One microgram per mL of bacterial LPS is prepared in THP1 media and is transferred to the wells. Test compounds are dissolved in 100% DMSO and are serially diluted 3 fold in a polypropylene 96-well microtiter plate (drug plate). HI control and LO control wells contain only DMSO. One microliter of test compound from the drug plate followed by 10 μL of LPS are transferred to the cell plate. The treated cells are induced to synthesize and secrete TNF-α at 37° C. for 3 h. Forty microliters of conditioned media are transferred to a 96-well polypropylene plate containing 110 μL of ECL buffer (50 mM Tris-HCl pH 8.0, 100 mM NaCl, 0.05% Tween 20, 0.05% NaN3 and 1% FBS) supplemented with 0.44 nM MAB610 monoclonal Ab (R&D Systems), 0.34 nM ruthenylated AF210NA polyclonal Ab (R&D Systems) and 44 μg/mL sheep anti-mouse M280 Dynabeads (Dynal). After a 2 h incubation at room temperature with shaking, the reaction is read on the ECL M8 Instrument (IGEN Inc.). A low voltage is applied to the ruthenylated TNF-α: immune complexes, which in the presence of TPA (the active component in Origlo), results in a cyclical redox reaction generating light at […]. The amount of secreted TNF-α in the presence of compound compared with that in the presence of DMSO vehicle alone (HI control) is calculated using the formula: % control (POC)=(cpd−average LO)/(average HI−average LO)*100. Data (consisting of POC and inhibitor concentration in AM) is fitted to a 4-parameter equation (y=A+((B−A)/(1+((x/C)^D))), where A is the minimum y (POC) value, B is the maximum y (POC), C is the x (cpd concentration) at the point of inflection and D is the slope factor) using a Levenburg-Marquardt non-linear regression algorithm.
`O=c1[nH]n(C2CCNCC2)c(-c2ccncc2)c1-c1ccc(Cl)cc1` [Example 5, 4-(4-Chloro-phenyl)-1-piperidin-4-yl-5-pyridin-4-yl-1,2-dihydro-pyrazol-3-one] registered an IC50 not above 20 µM.

As to `O=c1[nH]n(C2CCCNC2)c(-c2ccncc2)c1-c1ccc(Cl)cc1` (stereo not shown) [Example 6, 4-(4-Chloro-phenyl)-1-piperidin-3-yl-5-pyridin-4-yl-1,2-dihydro-pyrazol-3-one], the IC50 is not above 20 µM.

`CN1CCC(n2[nH]c(=O)c(-c3ccc(Cl)cc3)c2-c2ccncc2)CC1` [Example 10, 4-(4-Chlorophenyl)-1-(1-methyl-piperidin-4-yl)-5-pyridin-4-yl-1,2-dihydro-pyrazol-3-one] had an IC50 not above 20 µM.

In turn, `CN1CCCC(n2[nH]c(=O)c(-c3ccc(Cl)cc3)c2-c2ccncc2)C1` (stereo not shown) [Example 11, 4-(4-Chlorophenyl)-1-(1-methyl-piperidin-3-yl)-5-pyridin-4-yl-1,2-dihydro-pyrazol-3-one] had an IC50 not above 20 µM.

`CC(C)N1CCC(n2[nH]c(=O)c(-c3ccc(Cl)cc3)c2-c2ccncc2)CC1` [Example 12, 4-(4-Chlorophenyl)-1-(1-isopropyl-piperidin-4-yl)-5-pyridin-4-yl-1,2-dihydro-pyrazol-3-one] came in with an IC50 not above 20 µM.

For the molecule `O=c1[nH][nH]c(-c2ccncc2)c1-c1ccc(Cl)c(Cl)c1` [Example 15, 4-(3,4-Dichloro-phenyl)-5-pyridin-4-yl-1,2-dihydro-pyrazol-3-one], the IC50 was not above 20 µM.

Consider `CC(C)n1[nH]c(=O)c(-c2ccc(Cl)c(Cl)c2)c1-c1ccncc1` [Example 16, 4-(3,4-Dichloro-phenyl)-1-isopropyl-5-pyridin-4-yl-1,2-dihydro-pyrazol-3-one], for which the IC50 is not above 20 µM.

Regarding `CC(C)n1c(-c2ccncc2)c(-c2ccc(Cl)c(Cl)c2)c(=O)n1C` [Example 17, 4-(3,4-Dichloro-phenyl)-1-isopropyl-2-methyl-5-pyridin-4-yl-1,2-dihydro-pyrazol-3-one], the IC50 is not above 20 µM.

As to `Cn1c(=O)c(-c2ccc(Cl)c(Cl)c2)c(-c2ccncc2)n1CC1CCCCC1` [Example 19, 1-Cyclohexylmethyl-4-(3,4-dichloro-phenyl)-2-methyl-5-pyridin-4-yl-1,2-dihydro-pyrazol-3-one], the IC50 was not above 20 µM.

`NC1CCC(n2[nH]c(=O)c(-c3ccc(Cl)cc3)c2-c2ccncc2)CC1` (stereo not shown) [Example 20, 1-(4-Aminocyclohexyl)-4-(4-chlorophenyl)-5-pyridin-4-yl-1,2-dihydropyrazol-3-one] gave an IC50 not above 20 µM.
